In patent US20110098180A1, “Herbicide-Resistant Plants, And Polynucleotides And Methods For Providing Same” (United States Department of Agriculture, priority 2002, published 2011):

Target: hydrilla PDS position 304 Arginine, His-tagged (Hydrilla verticillata, UniProt Q66PY0)
Test: Cross-resistance testing, His-tagged column-purified PDS (Table 2A)
Assay type: biochemical
Details: for R/S: Arginine at 304 (reference), Table 2A; for IC50: Arginine at 304, His-tagged, column-purified PDS, read-out: I50
Source text: The alternative approach utilized His-tagging and column purification of the mutant PDS protins.
In order to express pds in bacteria, deletion clones were made for each of the three potential start codons with and without ATG. […] The forward primers used were ORF (5′ […] 3′), ORF-ATG (5′ […] 3′), 3_ORF (5′[…] 3′) and 3_ORF-ATG (5′ […] 3′). The resulting plasmids were named pORF, pORF-ATG (minus ATG codon), p3ORF and p3ORF-ATG. The pds-containing EcoRI-fragments of these plasmids were subcloned into the EcoRI site of pRSETb vector (Invitrogen) for Histidine tagging and bacterial expression. The resulting constructs were pHy4SET, pHy4SET-ATG (minus ATG), p3ORFSET and p3ORFSET-ATG.
Primers used to replace Arg by His were Hyd-His-For (5′[…] 3′) and Hyd-His-Rev (5′ […] 3′); to replace Arg by Thr we used primers Hyd-Thr-For (5′[…] 3′) and Hyd-Thr-Rev (5′[…] 3′); to replace Arg by Ser we used Hyd-Ser-For (5′[…] 3′) and Hyd-Ser-Rev (5′[…] 3′); and Arg was replaced by Cys using Hyd-Cys-For (5′[…] 3′) and Hyd-Cys-Rev (5′[…] 3′). Resulting plasmids were named: p3ORFHisSet-ATG, p3ORFThrSet-ATG, p3ORFSerSet-ATG and p3ORFCysSet-ATG.
All pRSET derived constructs were transformed into BL21(DE3)pLysS cells (Invitrogen), induced with IPTG for protein expression, and the His tag overproduced proteins analyzed by Western blot using Anti-HisG antibody (Invitrogen, cat. #R940-25).
BL21(DE3)pLysS cells were grown overnight in 500 ml Luria Broth (LB) supplemented with carbenicillin (100 mg/l) and cloramphenicol (60 mg/l) at 37° C., and induced with 0.3 mM isopropylthio-β-D-galactoside (IPTG) for 3 hrs. Cells were lysed using a French press (Spectronics Instrument) at 20,000 psi and overexpressed PDS was purified on a nickel activated Hitrap Chelating HP column according to the manufacturers instructions (Amersham Bioscience).
Generally, PDS protein fractions prepared as described above (Non-His-tagged and His-tagged) were mixed with a soluble fraction from phytoene-producing E. coli cells. […] This E. coli strain was separately cultured and lysed, and its soluble components collected (“the EB extract”) in a fashion similar to that described above for the PDS-producing cells.
His-tagged, purified proteins prepared as described above were transferred to the assay buffer on a PD10 column (Amersham Bioscience) and the concentration was adjusted to 100 μg/mL. Crude extracts containing phytoene were produced in E. coli JM101/pACCRT-EB containing geranylgeranyl pyrophosphate synthase and phytoene synthase enzymes from Erwinia uredova as described above. The reaction assays consisted of 50 μg PDS in 500 μl of assay buffer (200 mM Sodium Phosphate, pH 7.2) and 500 μl of pACCRT-EB extract. The herbicide (10 μL in MeOH) was added to the 500 μl of PDS extract and incubated on ice for 15 minutes prior to mixing it with the EB extract. […] Dose-response curves were fitted to the four-parameter logistic function. […] I^50 values were calculated from the regressions.

hydrilla PDS position 304 Arginine, His-tagged, sequence (Q66PY0 77-580): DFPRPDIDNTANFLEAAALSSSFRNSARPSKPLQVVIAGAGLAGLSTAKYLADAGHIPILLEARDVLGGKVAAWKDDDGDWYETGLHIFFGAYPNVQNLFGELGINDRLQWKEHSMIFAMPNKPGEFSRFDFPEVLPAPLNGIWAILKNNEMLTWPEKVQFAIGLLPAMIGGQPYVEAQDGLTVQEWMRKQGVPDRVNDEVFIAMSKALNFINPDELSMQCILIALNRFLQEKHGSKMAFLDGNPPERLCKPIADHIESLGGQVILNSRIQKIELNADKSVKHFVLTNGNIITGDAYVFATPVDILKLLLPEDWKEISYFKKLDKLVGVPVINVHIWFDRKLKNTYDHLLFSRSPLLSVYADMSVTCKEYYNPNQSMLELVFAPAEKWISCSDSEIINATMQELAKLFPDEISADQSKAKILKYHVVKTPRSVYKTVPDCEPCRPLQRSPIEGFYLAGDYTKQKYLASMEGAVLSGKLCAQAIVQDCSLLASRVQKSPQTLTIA

Molecule | R/S | IC50 | R/S (30 min)
CCC(Oc1ccc(F)c(C(F)(F)F)c1)C(=O)NCc1ccccc1 (centres unmarked) [Beflubutamid] | 1 | 72 µM | 
O=C(Nc1ccc(F)cc1F)c1cccnc1Oc1cccc(C(F)(F)F)c1 [Diflufenican] |  | 101 µM | 1
O=C1C(Cl)C(CCl)CN1c1cccc(C(F)(F)F)c1 (centres unmarked) [Fluorochloridone] |  | 130 µM | 1
CNC1=C(c2cccc(C(F)(F)F)c2)C(=O)C(c2ccccc2)O1 (centres unmarked) [Flurtamone] |  | 300 µM | 1
CNc1cnn(-c2cccc(C(F)(F)F)c2)c(=O)c1Cl [Norflurazon] |  | 50 µM | 
O=C(Nc1ccc(F)cc1)c1cccc(Oc2cccc(C(F)(F)F)c2)n1 [Piconilafen, Picolinafen] |  | 327 µM | 
Fluridone |  |  | 1
